Experimental data taken from patent US4812465A, “Triazole derivatives for use as antimycotic agents” (CL Pharma Aktiengesellschaft, priority 1986, dated 1989).
In brackets after ≈: the same amount, converted by molar mass.

Tests used:
Assay in all cases: In vitro determination of minimum inhibitory concentration (MIC), serial dilution
Type in all cases: cell-based
Aspergillus fumigatus = details: 20160 min, pH 6
Experimental: (§1) The antimycotic activities of the compounds were measured by in vitro determination of the minimum inhibitory concentration (MIC) for yeasts, molds and dermatophytes.
(§2) 6 dermatophytes, 2 yeasts and 4 molds were used for testing with fungi, as follows:
(§3) The minimum inhibitory concentration (MIC) was determined in serial dilution tests in test tubes. The volume of the liquid nutrient medium in each test tube was 4.5 ml.
(§4) The substances were dissolved in DMSO and diluted with sterile distilled water to 10 concentrations (100, 50, 25, 12.5, 6.25, 3.12, 1.56, 0.78, 0.39 and 0.19 μg/ml). 0.5 ml of each of these dilution steps was added to liquid nutrient medium. Thus, a constant concentration of solvent in all the nutrient media was ensured, irrespective of the active compound concentration.
(§5) A comparison solution which contained only the solvent in appropriate concentration was included when carrying out each of the tests.
(§6) The individual strains were maintained on Sabouraud/beerwort agar slants and, before they were used in a test, they underwent a passage on a modified Sabouraud liquid nutrient medium. The strains were then harvested, washed and converted into a suspension of McFaerland 3 in the case of yeasts and molds and of McFaerland 4-5 in the case of dermatophytes.
(§7) The amount of material inoculated (inoculum) was 100 μl/test tube (inoculated densities: yeasts about 10^3 /ml, molds about 10^4 /ml, dermatophytes about 10^4 /ml). The pH of the liquid nutrient medium was 6.0. After inoculation had taken place the fungi were incubated at 22° C. for 14 days.
(§8) The MIC was then determined. The concentration step at which growth was no longer visible on macroscopic inspection was used for the determination of the MIC. The comparison substance used was 1-(2-(2,4-dichlorophenyl)-2-(2,4-dichlorophenylmethoxy)ethyl)-1H-imidazole(compound A).

[1] = tested on: Trichophyton mentagrophytes; details: 336 h, pH 6, Trichophyton mentagrophytes, pH 6.0, 22° C., 14 days
Experimental: as §1, §2, §3, §4, §5, §6, §7, §8

Candida albicans = details: 336 h, pH 6, Candida albicans, pH 6.0, 22° C., 14 days, read-out: MIC C.alb
Experimental: as §1, §2, §3, §4, §5, §6, §7, §8

Trichophyton rubrum = details: 336 h, pH 6, Trichophyton rubrum, pH 6.0, 22° C., 14 days
Experimental: as §1, §2, §3, §4, §5, §6, §7, §8

Mucor mucedo minus = details: Mucor mucedo, 336 h, pH 6, Mucor mucedo minus; pH 6.0, 22° C., 14 days
Experimental: as §1, §2, §3, §4, §5, §6, §7, §8

Trichophyton verrucosum = details: 336 h, pH 6, Trichophyton verrucosum, pH 6.0, 22° C., 14 days
Experimental: as §1, §2, §3, §4, §5, §6, §7, §8

Absidia ramosa = details: Lichtheimia ramosa, 336 h, pH 6, Absidia ramosa; pH 6.0, 22° C., 14 days
Experimental: as §1, §2, §3, §4, §5, §6, §7, §8

Microsporum gypseum = details: Nannizzia gypsea, 336 h, pH 6, Microsporum gypseum; pH 6.0, 22° C., 14 days; read-out: MIC Mi.gyp
Experimental: as §1, §2, §3, §4, §5, §6, §7, §8

Microsporum canis = details: 336 h, pH 6, Microsporum canis, pH 6.0, 22° C., 14 days
Experimental: as §1, §2, §3, §4, §5, §6, §7, §8

Mucor mucedo plus = details: Mucor mucedo, 336 h, pH 6, Mucor mucedo plus; pH 6.0, 22° C., 14 days
Experimental: as §1, §2, §3, §4, §5, §6, §7, §8

Candida tropicalis = details: 336 h, pH 6, Candida tropicalis, pH 6.0, 22° C., 14 days, read-out: MIC C.trop
Experimental: as §1, §2, §3, §4, §5, §6, §7, §8

Epidermophyton floccosum = details: 336 h, pH 6, Epidermophyton floccosum, pH 6.0, 22° C., 14 days
Experimental: as §1, §2, §3, §4, §5, §6, §7, §8

| SMILES | MIC Asp.fu. (Aspergillus fumigatus) | MIC [1] [µg/mL] | MIC (Candida albicans) [µg/mL] | MIC (Trichophyton rubrum) [µg/mL] | MIC (Mucor mucedo minus) [µg/mL] | MIC (Trichophyton verrucosum) [µg/mL] | MIC (Absidia ramosa) [µg/mL] | MIC (Microsporum gypseum) [µg/mL] | MIC (Microsporum canis) [µg/mL] | MIC (Mucor mucedo plus) [µg/mL] | MIC (Candida tropicalis) [µg/mL] | MIC (Epidermophyton floccosum) [µg/mL] |
| --- | --- | --- | --- | --- | --- | --- | --- | --- | --- | --- | --- | --- |
| Clc1ccc(C(Cn2ccnc2)NCCCSc2ccc3ccccc3c2)c(Cl)c1 (stereo not drawn) [Compound 114] | 0,78 μg/ml | 3.12 (≈ 6.84 µM) | 3.12 (≈ 6.84 µM) | 1.56 (≈ 3.42 µM) | 3.12 (≈ 6.84 µM) | 1.56 (≈ 3.42 µM) | 6.25 (≈ 13.7 µM) | 3.12 (≈ 6.84 µM) | 0.78 (≈ 1.71 µM) | 6.25 | 6.25 (≈ 13.7 µM) | 3.12 (≈ 6.84 µM) |
| Clc1ccc(OCCNC(Cn2cncn2)c2ccc(Cl)cc2Cl)cc1 (stereo not drawn) [Compound 14] | 100 µg/mL (≈ 243 µM) | 12.5 (≈ 30.4 µM) | 12.5 (≈ 30.4 µM) | 6.25 (≈ 15.2 µM) | 6.25 (≈ 15.2 µM) | 12.5 (≈ 30.4 µM) | 100 (≈ 243 µM) | 6.25 (≈ 15.2 µM) | 12.5 (≈ 30.4 µM) | 12.5 | 12.5 (≈ 30.4 µM) | 3.12 (≈ 7.58 µM) |
| Clc1ccc(C(Cn2cncn2)NCCCSc2ccc(Br)cc2)c(Cl)c1 (stereo not drawn) [Compound 104] | 100 µg/mL (≈ 206 µM) | 25 (≈ 51.4 µM) | 25 (≈ 51.4 µM) | 6.25 (≈ 12.9 µM) | 50 (≈ 103 µM) | 12.5 (≈ 25.7 µM) | 100 (≈ 206 µM) | 6.25 (≈ 12.9 µM) | 100 (≈ 206 µM) | 12.5 | 12.5 (≈ 25.7 µM) | 12.5 (≈ 25.7 µM) |
| Clc1ccc(SCCCNC(Cn2ccnc2)c2ccc(Br)cc2)cc1 (stereo not drawn) [Compound 100] | 6,25 μg/ml | 6.25 (≈ 13.9 µM) | 3.12 (≈ 6.92 µM) | 3.12 (≈ 6.92 µM) | 25 (≈ 55.5 µM) | 6.25 (≈ 13.9 µM) | 6.25 (≈ 13.9 µM) | 6.25 (≈ 13.9 µM) | 6.25 (≈ 13.9 µM) | 12.5 | 12.5 (≈ 27.7 µM) | 6.25 (≈ 13.9 µM) |
| Clc1ccc(SCCCNC(Cn2ccnc2)c2cccc3ccccc23)cc1 (stereo not drawn) [Compound 139] | 3,12 μg/ml | 3.12 (≈ 7.39 µM) | 3.12 (≈ 7.39 µM) | 1.56 (≈ 3.7 µM) | 3.12 (≈ 7.39 µM) | 1.56 (≈ 3.7 µM) | 3.12 (≈ 7.39 µM) | 1.56 (≈ 3.7 µM) | 1.56 (≈ 3.7 µM) | 3.12 | 12.5 (≈ 29.6 µM) | 3.12 (≈ 7.39 µM) |
| Fc1ccc(OCCCNC(Cn2ccnc2)c2ccc(Cl)cc2Cl)cc1 (stereo not drawn) [Compound 56] | 0,78 μg/ml | 3.12 (≈ 7.64 µM) | 12.5 (≈ 30.6 µM) | 1.56 (≈ 3.82 µM) | 0.78 (≈ 1.91 µM) | 1.56 (≈ 3.82 µM) | 6.25 (≈ 15.3 µM) | 3.12 (≈ 7.64 µM) | 12.5 (≈ 30.6 µM) | 1.56 | 3.12 (≈ 7.64 µM) | 6.25 (≈ 15.3 µM) |
| Clc1ccc(SCCCNC(Cn2cncn2)c2ccc(Cl)cc2Cl)cc1 (stereo not drawn) [Compound 95] | 12,5 μg/ml | 3.12 (≈ 7.06 µM) | 12.5 (≈ 28.3 µM) | 1.56 (≈ 3.53 µM) | 3.12 (≈ 7.06 µM) | 3.12 (≈ 7.06 µM) | 100 (≈ 226 µM) | 3.12 (≈ 7.06 µM) | 6.25 (≈ 14.1 µM) | 3.12 | 12.5 (≈ 28.3 µM) | 0.78 (≈ 1.77 µM) |
| Clc1ccc(SCCCNC(Cn2cncn2)c2ccc(Cl)cc2)cc1 (stereo not drawn) [Compound 99] | 100 µg/mL (≈ 245 µM) | 6.25 (≈ 15.3 µM) | 6.25 (≈ 15.3 µM) | 3.12 (≈ 7.66 µM) | 6.25 (≈ 15.3 µM) | 3.12 (≈ 7.66 µM) | 100 (≈ 245 µM) | 3.12 (≈ 7.66 µM) | 12.5 (≈ 30.7 µM) | 12.5 | 12.5 (≈ 30.7 µM) | 6.25 (≈ 15.3 µM) |
| Cc1cc(Cl)ccc1OCCCNC(Cn1cncn1)c1ccc(Cl)cc1Cl (stereo not drawn) [Compound 68] | 100 µg/mL (≈ 227 µM) | 25 (≈ 56.8 µM) | 50 (≈ 114 µM) | 50 (≈ 114 µM) | 12.5 (≈ 28.4 µM) | 6.25 (≈ 14.2 µM) | 100 (≈ 227 µM) | 25 (≈ 56.8 µM) | 12.5 (≈ 28.4 µM) | 6.25 | 25 (≈ 56.8 µM) | 25 (≈ 56.8 µM) |
| CN(CCCSCc1ccc(Cl)cc1)C(Cn1ccnc1)c1ccc(Cl)cc1Cl (stereo not drawn) [Compound 3, 1-(2-(2,4-Dichlorophenyl)-2-(N-methyl-3-(4-chlorobenzylthio)propylamino)ethyl)-1H-imidazole] | 25,0 μg/ml | 6.25 (≈ 13.3 µM) | 3.12 (≈ 6.65 µM) | 6.25 (≈ 13.3 µM) | 6.25 (≈ 13.3 µM) | 6.25 (≈ 13.3 µM) | 50 (≈ 107 µM) | 6.25 (≈ 13.3 µM) | 1.56 (≈ 3.33 µM) | 6.25 | 0.78 (≈ 1.66 µM) | 1.56 (≈ 3.33 µM) |
